Results: publication PMC6368403, “Identification of a bilirubin receptor that may mediate a component of cholestatic itch” (eLife, 2019)
Where “and” joins values, the source holds several entries; their conditions need not be identical. Equal values may be shown once. Numbered stars: 1 amine (or outer) side, 2 acyl side, 3 side chain; on linkers, the order of the positions; unused ones are H or OH. Bridge positions count the residues as written; N and C are the ends. Square brackets hold non-standard residues; d marks the D form. Peptide text beside a SMILES is read from it. X1 = CC(=O)NC(C(=O)OC(C(C)C)C(N[*:1])C(=O)[*:2])C(O)C(C)C; PhLac = O=C(O)[CH](O)Cc1ccccc1; NMeT = CN[CH](C(=O)O)[CH](C)O; NMeA = CN[CH](C)C(=O)O; NMeDha = C=C(NC)C(=O)O

How the values were obtained:
mice = test: Scratching bouts after subcutaneous injection into the nape of the neck / back; type: in vivo, mouse; conditions: for Scratching bouts binned according to 5 min intervals (time course of itch behavior): one column per mouse, values of a mouse sum to 1 (Fig 1B)
Procedure: All applicable behavioral tests were performed and analysed with the experimenter blind to genotype. […] On the day before the experiment, animals were placed in the test chamber for 30 min before being subjected to a series of three mock injections with 5 min break periods in between. On the day of the experiment, animals were first allowed to acclimatize to the test chamber for 10 min before injection. […] A bout of scratching was defined as a continuous scratching movement with either hindpaw directed at the area of the injection site. In the cheek injection model, a wipe was defined as a single forepaw stroking the site of the injection. Use of both forepaws on the face or cheek was considered as grooming behavior. […] For H1R block, 30 mg/kg of cetirizine HCl (pH 7.4) was given intraperitoneally thirty minutes prior to injection of bilirubin. Licking behavior was quantified in seconds and identified as the licking of the toes or footpad of the hind paw site of injection that was neither preceded nor followed by licking of any other portion of the body.

MRGPRA1 = target: T1, MRGPRA1 (Mus musculus, UniProt Q91WW5); test: Ca2+ imaging and concentration-Ca2+ response (EC50) in HEK293 cells expressing MRGPRA1; type: cell-based; conditions: for Effect on bilirubin-induced calcium responses: MRGPRA1 cells pre-incubated with 10 µM inhibitor for 30 min, 50 µM bilirubin; for Ca2+ response (concentration-response curve): MRGPRA1, triplicate wells (Fig 2D)
T1 construct: expressed in transfected cells
T1 sequence (Q91WW5 1-304): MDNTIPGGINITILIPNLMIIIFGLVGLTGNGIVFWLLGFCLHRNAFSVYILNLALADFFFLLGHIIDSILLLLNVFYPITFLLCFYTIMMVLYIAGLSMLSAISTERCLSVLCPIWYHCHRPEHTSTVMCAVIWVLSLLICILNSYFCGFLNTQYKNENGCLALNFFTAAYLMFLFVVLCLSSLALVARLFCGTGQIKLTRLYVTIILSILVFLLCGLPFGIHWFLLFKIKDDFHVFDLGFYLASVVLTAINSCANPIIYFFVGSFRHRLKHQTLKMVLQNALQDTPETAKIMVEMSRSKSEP
Procedure: (§1) All cultured cells were maintained in DMEM supplemented with 10% FBS and 1% Penicillin/Streptomycin at 37°C, 5% CO2. All data included were generated from cells tested for mycoplasma and found to be negative. Cells were imaged in calcium imaging buffer (CIB; 10 mM HEPES, 1.2 mM NaHCO3, 130 mM NaCl, 3 mM KCl, 2.5 mM CaCl2, 0.6 mM MgCl2, 20 mM glucose, and 20 mM sucrose at pH 7.4 and 290–300 mOsm). To monitor changes in intracellular [Ca^2+] ([Ca^2+]i), cells were loaded with either Fura 2-AM (HEK293 cells) or Fluo 4-AM (DRG neurons and mast cells) for 30 min in the dark at 37°C in CIB just prior to imaging. With Fura 2-AM, emission at 510 nm was monitored from excitation at both 340 nm and 380 nm. With Fluo 4-AM, emission at 520 nm was monitored from excitation at 488 nm. Cells were identified as responding if the intracellular [Ca^2+] rose by either 50% compared to baseline or 50% compared to the [Ca^2+]i change assayed during addition of 50 mM KCl (neurons only). Damaged, detached, high-baseline, and motion-activated cells were excluded from analysis.
(§2) In initial screens, HEK293 cells stably expressing the murine G-protein alpha-subunit Gα15, a unique Gα protein that non-selectively couples a large variety of GPCRs to phospholipase C ^30, were plated on poly-D-lysine-coated coverslips and transiently transfected with constructs encoding the MRGRPR of interest. 12–24 hr later, cells were loaded with the Fura 2-AM. Unless otherwise specified, compounds were perfused into the imaging chamber for approximately thirty seconds after a baseline period was established. Response was then monitored at 5 s intervals for an additional 60 s.
(§3) HEK293 cells stably expressing either MRGPRA1, MRGPRX4, and MRGRPC11 were seeded in poly-D-lysine-coated 96-well plates at 10,000 cells/well. Cells were loaded with Fura 2–AM, washed twice, and maintained in CIB. Haem metabolites were freshly dissolved in DMSO in dim light and then diluted into a buffer comprised of 20 mM Tris and 150 mM NaCl at pH 8.8. Potential changes in pH were evaluated prior to each experiment. EC50 values were determined from dose-responses performed in triplicate, repeated 2–4 times. To determine potential antagonism by QWF against bilirubin, cells were treated with varying doses of QWF for 1 min in CIB prior to application of agonist.
(§4) HEK293 stable cell lines expressing GFP-tagged MRGPRA3, MRGPRC11, MRGPRD, MRGPRX1, and MRGPRX2 were generated in previously described reports ([Liu et al., 2009]; [Liu et al., 2012]; [McNeil et al., 2015]). Briefly, plasmids containing the receptor of interest were transfected into HEK cells using Lipofectamine 3000. After 3 days, cells were then selected using 0.5 mg/mL G418. After 3 weeks, monoclonal colonies were established and each the highest expressing clones were identified. For this study, Mrgpra1 and MRGPRX4 were inserted into pEGFP-N1 and transfected into HEK293 cells. MRGPR-positive cells were selected using 0.5 mg/mL G418 for three weeks, after which GFP-positive cells were sorted by FACS and monoclonally expanded. Two lines expressing similar levels of MRGPRA1 and MRGPRX4, as measured by GFP fluorescence, were selected for study.

MRGPRX4 = target: T2, MRGPRX4 (Homo sapiens, UniProt Q96LA9); test: Ca2+ imaging and concentration-Ca2+ response (EC50) in HEK293 cells expressing MRGPRX4; type: cell-based; conditions: for Effect on bilirubin-induced calcium responses: MRGPRX4 cells pre-incubated with 10 µM inhibitor for 30 min, 50 µM bilirubin; for Ca2+ response (concentration-response curve): MRGPRX4, triplicate wells (Fig 2I)
T2 construct: expressed in transfected cells
T2 sequence (Q96LA9 whole entry): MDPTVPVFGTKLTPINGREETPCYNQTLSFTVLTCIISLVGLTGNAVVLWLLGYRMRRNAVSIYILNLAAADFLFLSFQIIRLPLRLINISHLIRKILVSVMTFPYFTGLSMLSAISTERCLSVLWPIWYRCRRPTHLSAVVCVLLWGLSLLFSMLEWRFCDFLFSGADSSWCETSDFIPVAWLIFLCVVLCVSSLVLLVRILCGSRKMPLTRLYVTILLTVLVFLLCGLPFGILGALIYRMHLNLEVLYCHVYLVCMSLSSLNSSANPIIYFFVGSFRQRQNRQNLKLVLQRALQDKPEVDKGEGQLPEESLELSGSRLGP
Procedure: as §1, §2, §3, §4

Which results are given for CCN(CC)CCCC(C)Nc1ccnc2cc(Cl)ccc12 (stereo not shown) [Chloroquine, chloroquine]?
Scratching bouts binned according to 5 min intervals (time course of itch behavior) (mice; time 5 min): 0.201 and 0.03846 and 0.1149 and 0.1078 and 0.05405 and 0 (2×) and 0.1374 and 0.04255 and 0.2424 and 0.1529; Scratching bouts binned according to 5 min intervals (time course of itch behavior) (mice; time 10 min): 0.2353 and 0.1065 and 0.2213 and 0.1121 and 0.1459 and 0.2993 and 0.3626 and 0.4113 and 0.6263 and 0.2639 and 0.4204; Scratching bouts binned according to 5 min intervals (time course of itch behavior) (mice; time 15 min): 0.348 and 0.3787 and 0.1447 and 0.2155 and 0.3676 and 0.3673 and 0.4011 and 0.3191 and 0 and 0.5 and 0.2548; Scratching bouts binned according to 5 min intervals (time course of itch behavior) (mice; time 20 min): 0.1618 and 0.2426 and 0.2681 and 0.2284 and 0.1838 and 0.1837 and 0.0989 and 0.09929 and 0.1212 and 0 (2×); Scratching bouts binned according to 5 min intervals (time course of itch behavior) (mice; time 25 min): 0.05392 and 0.142 and 0.1447 and 0.1336 and 0.09189 and 0.1361 and 0 (3×) and 0.2361 and 0.172; Scratching bouts binned according to 5 min intervals (time course of itch behavior) (mice; time 30 min): 0 (4×) and 0.09172 and 0.1064 and 0.2026 and 0.1568 and 0.01361 and 0.1277 and 0.0101

Which results are given for NCCc1c[nH]cn1 [Histamine, histamine]?
Scratching bouts binned according to 5 min intervals (time course of itch behavior) (mice; time 5 min): 0.02985 and 0.0102 and 0 (10×) and 0.134; Scratching bouts binned according to 5 min intervals (time course of itch behavior) (mice; time 10 min): 0.3881 and 0.5714 and 0.08333 and 0.1818 and 0.3333 and 0.527 and 0.02857 and 0.1765 and 0.2143 and 0.1923 and 0.3918 and 0.5938 and 0.4348; Scratching bouts binned according to 5 min intervals (time course of itch behavior) (mice; time 15 min): 0.2985 and 0.07143 and 0.8333 and 0.6545 and 0.625 and 0.3919 and 0.4286 and 0.2353 and 0.3367 and 0.3846 and 0.1031 and 0 and 0.5435; Scratching bouts binned according to 5 min intervals (time course of itch behavior) (mice; time 20 min): 0.2687 and 0.1633 and 0 (2×) and 0.1636 and 0.04167 and 0.08108 and 0.2286 and 0.4118 and 0.08163 and 0.1154 and 0.2344 and 0.02174; Scratching bouts binned according to 5 min intervals (time course of itch behavior) (mice; time 25 min): 0.01493 and 0.1837 and 0.08333 and 0 (4×) and 0.3143 and 0.1765 and 0.1939 and 0.3077 and 0.2474 and 0.1719; Scratching bouts binned according to 5 min intervals (time course of itch behavior) (mice; time 30 min): 0 (11×) and 0.1735 and 0.1237

COc1ccc2c(c1)CC[C@@H]1[C@@H]2CC[C@]2(C)[C@@H](NCCCCCCN3C(=O)C=CC3=O)CC[C@@H]12 [U73122, reference compound] was tested. Which “Effect on bilirubin-induced calcium responses” value (MRGPRA1) did it give?
The value was “abolished bilirubin-induced calcium responses”.

And the “Effect on bilirubin-induced calcium responses” value (MRGPRX4)?
The value was “inhibited bilirubin-induced calcium responses”.

For C=C1C(=O)NC(C)C(=O)N(C)C(C)C(=O)NC(C(OC(=O)C(NC(C)=O)C(O)C(C)C)C(C)C)C(=O)N(C)C(C(C)OC)C(=O)OC(C)C(NC(C)=O)C(=O)OC(Cc2ccccc2)C(=O)N1C (stereo not shown) [YM-254890, reference compound] (Ac-T[PhLac][NMeDha]A[NMeA][X1][NMeT](Me); ester 1-C; configuration not given here), which “Effect on bilirubin-induced calcium responses” value (MRGPRA1) is on record?
Its value is “abolished bilirubin-induced calcium responses”.

And the “Effect on bilirubin-induced calcium responses” value (MRGPRX4)?
Its value is “inhibited bilirubin-induced calcium responses”.

Which “Scratching behavior” value (mice; metabolite injected into mice (Fig 1D)) does the source give for C=CC1=C(C)/C(=C/C2=NC(=C\c3[nH]c(/C=C4\NC(=O)C(C)=C4C=C)c(C)c3CCC(=O)O)/C(CCC(=O)O)=C2C)NC1=O [biliverdin] here?
Its value is “did not induce scratching”.

And the “Ca2+ response (concentration-response curve)” value (“Ca2+ response” below) (MRGPRA1; [Ligand] 7.8125e-6 M)?
The value was 0.

And the “Ca2+ response” value (MRGPRA1; [Ligand] 1.5625e-5 M)?
The value was 0.

And the “Ca2+ response” value (MRGPRA1; [Ligand] 3.125e-5 M)?
Its value is 0.

What about the “Ca2+ response” value (MRGPRA1; [Ligand] 6.25e-5 M) of the same compound?
The value was 0.

What about the “Ca2+ response” value (MRGPRA1; [Ligand] 0.000125 M) of the same compound?
The value was 0.

And the “Ca2+ response” value (MRGPRA1; [Ligand] 0.00025 M)?
The value was 0.

What about the “Ca2+ response” value (MRGPRA1; [Ligand] 0.0005 M) of the same compound?
The value was 0.

And the “Ca2+ response” value (MRGPRA1; [Ligand] 0.001 M)?
The value was 0.

And the “Ca2+ response” value (MRGPRX4; [Ligand] 7.8125e-6 M)?
Its value is 0.

And the “Ca2+ response” value (MRGPRX4; [Ligand] 1.5625e-5 M)?
The value was 0.

What about the “Ca2+ response” value (MRGPRX4; [Ligand] 3.125e-5 M) of the same compound?
The value was 0.

What about the “Ca2+ response” value (MRGPRX4; [Ligand] 6.25e-5 M) of the same compound?
Its value is 0.

And the “Ca2+ response” value (MRGPRX4; [Ligand] 0.000125 M)?
Its value is 0.

What about the “Ca2+ response” value (MRGPRX4; [Ligand] 0.00025 M) of the same compound?
The value was 0.

And the “Ca2+ response” value (MRGPRX4; [Ligand] 0.0005 M)?
The value was 0.

What about the “Ca2+ response” value (MRGPRX4; [Ligand] 0.001 M) of the same compound?
The value was 0.

Which “Effect on scratching of mice injected with bilirubin” value (mice; 30 mg/kg i.p. 30 min prior to bilirubin at the nape) does the source give for O=C(O)COCCN1CCN(C(c2ccccc2)c2ccc(Cl)cc2)CC1 (stereo not shown) [cetirizine] here?
The value was “failed to alleviate scratching behavior”.
